Target: T1, OgpAT (Oceanicola granulosus, UniProt Q2CEE2)
T1 construct: gene OG2516_04134; full-length OgpAT, expressed as GST fusion from pGEX-6P-1 in E. coli BL21(DE3) pLysS, GST cut off with PreScission protease; 206 residues in crystal; monomer; biotinylated for SPR; gene immediately downstream of OgOGA
Assay: surface plasmon resonance, biotinylated protein on streptavidin chip, […] equilibrium fit
Type: binding
Conditions: read-out: OgpAT, wt

T1 sequence (Q2CEE2 whole entry, the tested form may be a part): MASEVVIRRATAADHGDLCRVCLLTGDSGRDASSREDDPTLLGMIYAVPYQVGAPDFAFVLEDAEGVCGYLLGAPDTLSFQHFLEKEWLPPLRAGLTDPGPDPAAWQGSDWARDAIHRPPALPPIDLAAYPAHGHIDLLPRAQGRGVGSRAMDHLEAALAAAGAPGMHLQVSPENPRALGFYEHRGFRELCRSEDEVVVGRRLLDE

Kd: 8.3 µM
SMILES: CC(=O)SCCNC(=O)CCNC(=O)[C@H](O)C(C)(C)COP(=O)(O)OP(=O)(O)OC[C@H]1O[C@@H](n2cnc3c(N)ncnc32)[C@H](O)[C@@H]1OP(=O)(O)O [AcCoA]
